Data on 5 compounds can be found in ChEMBL document CHEMBL1148643, “Fancy bioisosteres: novel paracyclophane derivatives as super-affinity dopamine D3 receptor antagonists” (J Med Chem, 2006).

Where “and” joins values, the source holds several entries; their conditions need not be identical. Identical values can stand only once.

Assay [1] deals with T1, D(4) dopamine receptor (Homo sapiens, UniProt P21917).
T1 sequence (P21917 whole entry): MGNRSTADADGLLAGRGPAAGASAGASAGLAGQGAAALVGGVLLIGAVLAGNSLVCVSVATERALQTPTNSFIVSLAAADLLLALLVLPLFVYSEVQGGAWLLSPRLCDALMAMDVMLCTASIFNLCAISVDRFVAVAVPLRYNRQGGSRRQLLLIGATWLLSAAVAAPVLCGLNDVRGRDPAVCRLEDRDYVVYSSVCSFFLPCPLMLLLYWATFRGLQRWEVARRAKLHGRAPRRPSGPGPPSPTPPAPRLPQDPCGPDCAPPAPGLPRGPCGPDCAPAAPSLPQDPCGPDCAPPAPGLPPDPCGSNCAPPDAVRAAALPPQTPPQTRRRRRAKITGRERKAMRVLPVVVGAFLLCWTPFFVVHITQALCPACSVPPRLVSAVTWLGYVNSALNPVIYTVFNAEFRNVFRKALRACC
As to the kind of experiment: Displacement of [3H]spiperone from human D4 receptor expressed in CHO cells. It is filed as cell-based. A general note: Loss of bound radioactivity is the signal in a displacement assay; it reports binding, not function.

Assay [2] deals with T2, D(2) dopamine receptor (Homo sapiens, UniProt P14416). Nature of the assay: biochemical.
Description: Displacement of [3H]spiperone from human D2 long receptor expressed in CHO cells
The target in assay [3] is D(3) dopamine receptor (Homo sapiens, UniProt P35462). As to the kind of experiment: biochemical.
Description: Displacement of [3H]spiperone from human D3 receptor expressed in CHO cells
Assay [4] addresses T2, D(2) dopamine receptor. Nature of the assay: biochemical. This is another data set of the same source.
Description: Displacement of [3H]spiperone from human D2 short receptor expressed in CHO cells

D(3) dopamine receptor, sequence (P35462 whole entry): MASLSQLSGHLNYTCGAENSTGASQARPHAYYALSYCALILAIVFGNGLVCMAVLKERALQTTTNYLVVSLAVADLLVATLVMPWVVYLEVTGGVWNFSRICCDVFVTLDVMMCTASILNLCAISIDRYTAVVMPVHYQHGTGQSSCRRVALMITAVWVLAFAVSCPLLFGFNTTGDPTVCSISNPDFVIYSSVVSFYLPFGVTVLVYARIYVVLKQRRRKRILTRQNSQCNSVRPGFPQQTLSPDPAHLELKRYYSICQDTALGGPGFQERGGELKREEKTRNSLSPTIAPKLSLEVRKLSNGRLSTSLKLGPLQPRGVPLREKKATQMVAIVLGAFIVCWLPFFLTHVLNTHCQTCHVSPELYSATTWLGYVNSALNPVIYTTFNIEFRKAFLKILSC
T2 sequence (P14416 whole entry): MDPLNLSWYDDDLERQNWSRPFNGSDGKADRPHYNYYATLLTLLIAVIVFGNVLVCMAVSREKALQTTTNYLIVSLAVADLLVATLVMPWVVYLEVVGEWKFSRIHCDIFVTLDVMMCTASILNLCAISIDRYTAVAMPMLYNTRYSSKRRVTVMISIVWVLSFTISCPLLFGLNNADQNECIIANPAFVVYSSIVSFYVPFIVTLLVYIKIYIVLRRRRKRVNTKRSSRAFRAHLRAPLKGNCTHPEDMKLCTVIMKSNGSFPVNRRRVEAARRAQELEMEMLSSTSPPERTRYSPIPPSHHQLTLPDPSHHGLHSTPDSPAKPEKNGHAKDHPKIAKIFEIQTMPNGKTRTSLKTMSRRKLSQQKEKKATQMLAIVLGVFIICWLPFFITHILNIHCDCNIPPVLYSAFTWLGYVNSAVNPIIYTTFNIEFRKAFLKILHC

What is called Ki is the equilibrium dissociation constant of an inhibitor or competing ligand from its target. A higher Ki goes with weaker binding. For the compound `COc1ccccc1N1CCN(CCCCNC(=O)c2cc3c4ccc(c3o2)CCc2ccc(cc2)CC4)CC1`, the results for the Ki in assay [1], in assay [2] and in assay [3] were 140 nM, 170 nM and 16 nM, respectively.
Regarding `COc1c(Cl)cccc1N1CCN(CCCCNC(=O)c2cc3ccc2CCc2ccc(cc2)CC3)CC1`, the Ki is 33 nM in assay [1], 42 nM in assay [2], 28 nM in assay [4] and 0.46 nM in assay [3].
On the same counts, the results for `O=C(NCCCCN1CCN(c2cccc(Cl)c2Cl)CC1)c1cc2ccc1CCc1ccc(cc1)CC2` are 120 nM, 220 nM, 140 nM and 3.6 nM.
On to `COc1ccccc1N1CCN(CCCCNC(=O)c2cc3ccc2CCc2ccc(cc2)CC3)CC1`, for which the Ki was 5.4 nM and 9.5 nM in assay [1]; 15 nM and 11 nM in assay [2]; 13 nM and 5.6 nM in assay [4].
As for `O=C(NCCCCN1CCN(c2cccc(F)c2F)CC1)c1cc2ccc1CCc1ccc(cc1)CC2`, the Ki amounted to 18 nM in assay [1], 35 nM in assay [4] and 1.9 nM in assay [3].
